Source: patent publication US20100160454A1, “ANTIMICROBIAL AGENTS, COMPOSITIONS AND PRODUCTS CONTAINING THE SAME, AND METHODS OF USING THE COMPOSITIONS AND PRODUCTS” (Eastman Chemical Company, priority 2008, published 2010)

Tests used:
Format in all cases: cell-based
[1] = test system: Malassezia furfur (ATCC 96809); assay: Challenge testing against pathogenic fungi, growth rating in broth tubes; design: key: 0: No visible growth; 1: Some growth in tube; 2: Moderate growth in tube; 3: Good growth in tube; 4: Extreme growth in tube
Method: (§1) Both Microsporum canis and Trichophyton rubrum were grown on Sabouraud dextrose broth, while Malassezia fufur was grown in Sabouraud dextrose broth supplemented with 2% (v/v) of olive oil and 0.2% (v/v) of Tween™ 80; incubation was at 22°±2° C. under continuous agitation by stirring for 10 days. The organisms were grown to a density of between 1.0×10^3 to 1.0×10^4 cfu/g. The actual inoculation cell density of these challenges were determined by diluting in sterile buffer water and (spread-plate method) plating for enumeration.
(§2) Challenge organisms were used to inoculate tubes of 1,4-CHDM-D90 test concentrations prepared in Sabouraud dextrose broth (or Sabouraud dextrose broth supplemented with olive oil-Tween™ 80 with M. furfur). The inoculations were in the amount of 1.5 mL aliquots of each culture with static incubation at 22±2° C. Subcultures were made at 3-, 14- and 30-day increments. All challenges were conducted in triplicate. In the case of M. canis, the growth response was assessed by the visual presence/absence of growth in the tubes; in the case of T. rubrum, a respiratory (redox) dye (0.2% w/v aqueous INT solution: 2-[4-iodophenyl)-3-4-nitrophenyl]-5-phenyl tetrazolium chloride) was added to the tubes, turning red if the organism was viable; and, finally, in the case of M. furfur, the growth response was assessed based upon pellicle formation in the tubes at the meniscus. The test formulations and challenge test results, as well as 30-day MICs (Minimum Inhibitory Concentration), are in Tables 7-9 for the three organisms using the following growth rating system:
(§3) • 0: No visible growth • 1: Some growth in tube • 2: Moderate growth in tube • 3: Good growth in tube • 4: Extreme growth in tube

[2] = test system: Trichophyton rubrum (ATCC 10218); assay: as above; design: key: 0: No visible growth; 1: Some growth in tube; 2: Moderate growth in tube; 3: Good growth in tube; 4: Extreme growth in tube
Method: as §1, §2, §3

[3] = test system: Candida albicans Wild type; assay: Microbiological challenge testing in BPW broth, graded subculture counts; details: C. albicans
Method: The microorganisms in the table below were used in challenge tests. They were either ATCC (American Type Culture Collection) or “wild type” as indicated. Wild type organisms were problematic organisms previously isolated from chemical products.
All of the microorganisms were grown in Tryptose Soy Broth (TSB), DIFCO™ available from Becton, Dickinson and Company, containing 1% dextrose. Candida albicans and Aspergillus niger, were incubated at 22° C.+/−2° C. for at least 96 hours. All bacteria were incubated at 35° C.+/−2° C. in a humidified incubator for at least 96 hours.
Candida albicans and Aspergillus niger were also grown on Sabouraud Dextrose Agar (SABD) at 22° C. for 7 to 14 days or until full sporulation was achieved.
The following procedure was followed to determine the amount of each challenge material (inoculum broth) needed to produce a 10^8 CFU/mL challenge, which is equivalent to a final test-sample microbial concentration of 10^5 to 10^6 CFU/mL (CFU=colony forming units).
Using a sterile pipette, 1 mL of the growth from each TSB culture was transferred into tubes of 9 mL buffered water (pH 7.2 phosphate buffer) and mixed thoroughly. This was repeated to make serial 1:10 dilutions. Then, 0.1 mL of each sample and dilution was inoculated onto agar plates to produce the equivalent of a further 1:10 dilution. (C. albicans and A. niger were inoculated onto SABD and bacteria were inoculated onto Plate Count Agar (PCA), DIFCO™ available from Becton, Dickinson and Company.) (The normal volume plated for most samples was 0.1 mL. Some samples that could be very low in micro-organisms (high dilutions) were plated using 0.5 mL of inoculum, in order to produce reproducible counts.) The samples were distributed on the plates using the spread-plate technique. The spread-plate technique is carried out by spreading the sample over the entire plate surface using a sterile spreading rod while rotating the plate with a rotary auto-plater. After the inoculum was absorbed completely by the agar, each plate was inverted and incubated (fungi at 22° C.+/−2° C. and bacteria at 35° C.+/−2° C.).
After incubation for at least 48 hours, colonies that had developed on the agar plates were counted (CFU) and recorded with the corresponding dilution. If counting had to be delayed temporarily, plates were refrigerated, preferably no more than 24 hours, until they could be counted. The number of CFU/mL was determined by multiplying the plate count by the dilution factor of the plate counted.
Turbidity in Nepholemetric Turbidity Units (NTU) was measured for each serial dilution using the HF-Micro 100 Model Turbidimeter. For each microorganism, the plate counts were compared to the turbidity readings.
On the day of challenge, the Candida albicans inoculum broth was poured through nonabsorbent sterile gauze and centrifuged. The […] was then diluted with buffered water (pH 7.2 phosphate buffer) until the desired turbidity was reached. Using a hemocytometer, a determination was made whether the challenge contained the desired concentration. Dilutions were made through 1.0×10^8 and three SABD spread plates were inoculated with 0.1 mL of each dilution. The plates were incubated for at least 48 hours and challenge counts were confirmed.
Control substrates (“broth alone”) were prepared for each microorganism separately in triplicate by adding 13.5 mL of Buffered Peptone Water broth (BPW) containing 1% dextrose to each 20-mL glass tube, then adding 1.5 mL challenge material to produce a final concentration at time zero of 10^5 to 10^6 CFU/mL and a total volume of 15 mL.

SMILES: OCC1CCC(CO)CC1 (stereo not drawn) [1,4-CHDM, 1,4-cyclohexanedimethanol]
- M. furfur growth rating, 3 day ([1]; 0.5% weight/volume): 0
- M. furfur growth rating, 14 day ([1]; 0.5% weight/volume): 1
- M. furfur growth rating, 30 day ([1]; 0.5% weight/volume): 2
- M. furfur growth rating, 3 day ([1]; 1.25% weight/volume): 0
- M. furfur growth rating, 14 day ([1]; 1.25% weight/volume): 0
- M. furfur growth rating, 30 day ([1]; 1.25% weight/volume): 0
- M. furfur growth rating, 3 day ([1]; 2.5% weight/volume): 0
- M. furfur growth rating, 14 day ([1]; 2.5% weight/volume): 0
- M. furfur growth rating, 30 day ([1]; 2.5% weight/volume): 0
- M. furfur growth rating, 3 day ([1]; 5.0% weight/volume): 0
- M. furfur growth rating, 14 day ([1]; 5.0% weight/volume): 0
- M. furfur growth rating, 30 day ([1]; 5.0% weight/volume): 0
- T. rubrum growth rating, 3 day ([2]; 0.5% weight/volume): 1
- T. rubrum growth rating, 14 day ([2]; 0.5% weight/volume): 1
- T. rubrum growth rating, 30 day ([2]; 0.5% weight/volume): 1
- T. rubrum growth rating, 3 day ([2]; 1.25% weight/volume): 0
- T. rubrum growth rating, 14 day ([2]; 1.25% weight/volume): 0
- T. rubrum growth rating, 30 day ([2]; 1.25% weight/volume): 0
- T. rubrum growth rating, 3 day ([2]; 2.5% weight/volume): 0
- T. rubrum growth rating, 14 day ([2]; 2.5% weight/volume): 0
- T. rubrum growth rating, 30 day ([2]; 2.5% weight/volume): 0
- T. rubrum growth rating, 3 day ([2]; 5.0% weight/volume): 1
- T. rubrum growth rating, 14 day ([2]; 5.0% weight/volume): 0
- T. rubrum growth rating, 30 day ([2]; 5.0% weight/volume): 0
- Grade ([3]; 0.5% (wt/vol), 3 day): 3 (100 to 1000 colonies (thus 1000 to 10,000 CFU/mL))
- Grade ([3]; 0.5% (wt/vol), 14 day): 4 (1000 to 10,000 colonies countable (thus 10,000 CFU/mL to 100,000 CFU/mL))
- Grade ([3]; 0.5% (wt/vol), 30 day): 4 (1000 to 10,000 colonies countable (thus 10,000 CFU/mL to 100,000 CFU/mL))
- Grade ([3]; 1.25% (wt/vol), 3 day): 1 (0 to 51 colonies counted (thus 10 to 510 CFU/mL based on 0.1-mL sample))
- Grade ([3]; 1.25% (wt/vol), 14 day): 3 (100 to 1000 colonies (thus 1000 to 10,000 CFU/mL))
- Grade ([3]; 1.25% (wt/vol), 30 day): 4 (1000 to 10,000 colonies countable (thus 10,000 CFU/mL to 100,000 CFU/mL))
- Grade ([3]; 2.5% (wt/vol), 3 day): 0
- Grade ([3]; 2.5% (wt/vol), 14 day): 2 (52 to 100 colonies counted (thus 520 to 1000 CFU/mL))
- Grade ([3]; 2.5% (wt/vol), 30 day): 1 (0 to 51 colonies counted (thus 10 to 510 CFU/mL based on 0.1-mL sample))
- Grade ([3]; 5.0% (wt/vol), 3 day): 0
- Grade ([3]; 5.0% (wt/vol), 14 day): 0
- Grade ([3]; 5.0% (wt/vol), 30 day): 0

SMILES: CCCCOCCO [EB, 2-butoxyethanol]
- Grade ([3]; 2.5% (wt/vol), 3 day): 4 (1000 to 10,000 colonies countable (thus 10,000 CFU/mL to 100,000 CFU/mL))
- Grade ([3]; 2.5% (wt/vol), 14 day): 4 (1000 to 10,000 colonies countable (thus 10,000 CFU/mL to 100,000 CFU/mL))
- Grade ([3]; 2.5% (wt/vol), 30 day): 4 (1000 to 10,000 colonies countable (thus 10,000 CFU/mL to 100,000 CFU/mL))
- Grade ([3]; 5.0% (wt/vol), 3 day): 2 (52 to 100 colonies counted (thus 520 to 1000 CFU/mL))
- Grade ([3]; 5.0% (wt/vol), 14 day): 0
- Grade ([3]; 5.0% (wt/vol), 30 day): 0
